US7585896B2, “Composition for the prevention and treatment of kidney dysfunctions and diseases” (Sigma-Tau Industrie Farmaceutiche Riunite S.p.A., priority 1999, dated 2009)

Key:
[1] = test system: ochratoxin A-induced renal toxic lesions in Wistar rats; experiment: Protective activity against renal abnormalities induced by ochratoxin A; assay type: in vivo; details: for ALP (alkaline phosphatase) / GGT (gamma-glutamyl transferase) / NAG (N-acetyl-β-D-glucosaminidase): 24-hour urine, 300 mg/kg (of each drug) oral for 10 days with ochratoxin A; for effect on enzymuria induced by ochratoxin and serum creatinine levels: ochratoxin-intoxicated rats, result in words
Text: In experimental animals, particularly rats, it is possible to reproduce tubulo-interstitial nephropathy similar to that encountered in man and known as Balkans Endemic Nephropathy (BEN) by means of the administration of a mycotoxin produced by Aspergillus ochraceus which is present as a contaminant in various foodstuffs and is known as ochratoxin A (Kniper-Goodman T., Scott P., Biomed. Environ. Sci., 2, 179, 1989).
The administration of small amounts of this toxin causes a series of renal abnormalities in the rat with a reduction in glomerular filtration and lesions at the level of the proximal tubule to such an extent as to cause renal atrophy.
In this test a batch of Wistar rats with a mean body weight of 200 g was divided into various groups, one of which served as a control group, while another was administered […] of ochratoxin (Sigma Chemical, St. Louis, Mo. U.S.A.) by gastric probe every 48 hours for a period of ten days. The remaining groups, in addition to ochratoxin, also received oral administrations of 300 mg/ks of acetyl L-carnitine or 300 mg/kg of propionyl L-carnitine or a combination of the two carnitines for the entire 10-day treatment period.
At the end of treatment, the animals were placed in metabolic cages and 24-hour urine was submitted to spectrophotometric evaluation of the enzymes alkaline phosphatase (ALP), gamma-glutamyl transferase (GGT) and N-acetyl-β-D-glucosaminidase (NAG) as indicators of renal damage.
Serum creatinine concentrations were also measured.

[2] = test system: isolated perfused kidney; experiment: Protective activity against lithium-induced nephrotoxicity in the isolated perfused kidney (histamine release); parameters: species or system Wistar rats; details: for Percentage changes vs controls in histamine released: lithium 6 mEq/L after 20 min perfusion of carnitine 200 mM/L; for effect on histamine release induced by the renal toxic action of lithium: isolated perfused kidney, result in words
Text: This test was used to assess the protective activity of the combination of acetyl L-carnitine plus propionyl L-carnitine against the well-known nephrotoxic activity of lithium. Lithium presents a particular tropism at the renal tubule level and can cause tubular necrosis.
In this test Wistar rates with a mean body weight of 400 g were anaesthetised and nephrectomised. The excised kidneys were perfused according to the technique described by Shureck (Shureck H. J., Pflügers Arch., 354, 1975) as modified by Maach (Maach T., Kidney Int., 30, 142, 1986; Maach T., Ann. J. Physiol., 238, 1980).
Immediately after isolation of the kidney, the renal artery and outflow vein were catheterised and the resulting preparation was placed in a chamber containing a Krebs solution heated to 37° C. The oxygenised Krebs solution was pumped into the system by means of a pulsatile pump at a rate of 0.8 ml/min/g.
Lithium was administered via the perfusion pump at a dose of 6 mEq/L after perfusion during the previous 20 minutes of a solution containing acetyl L-carnitine or propionyl L-carnitine (200 mM/L) or a combination of the two compounds.
After the lithium infusion, the venous perfusion fluid was collected at five-minute intervals for fifteen minutes and its histamine content was measured with a fluorometric method (Hakanson R., Anal. Biochem., 47, 356, 1972). Histamine release is considered a marker of the severity of tubular damage (Bertelli A., Drugs Exptl. Clin Res., 7, 53, 1981).

[3] = test system: glycerol-induced renal insufficiency in male Sprague-Dawley rats; experiment: Protective activity against glycerol-induced renal insufficiency; assay type: in vivo; details: for Urea (plasma): glycerol-injected rats, 24 h after injection; for effect on the elevated plasma urea and creatinine concentrations: glycerol-induced acute renal insufficiency, oral or intraperitoneal, result in words
[4] = 5 minutes post-lithium-infusion
[5] = 10 minutes post-lithium-infusion
[6] = 15 minutes post-lithium-infusion

Row | SMILES | ALP (alkaline phosphatase) [1] [U/I] | GGT (gamma-glutamyl transferase) [1] [U/I] | NAG (N-acetyl-β-D-glucosaminidase) [1] [U/I] | effect on enzymuria induced by ochratoxin and serum creatinine levels [1] | Percentage changes vs controls in histamine released [2, 4] [%] | Percentage changes vs controls in histamine released [2, 5] [%] | Percentage changes vs controls in histamine released [2, 6] [%] | effect on histamine release induced by the renal toxic action of lithium [2] | Urea (plasma) ([3]; 100 mg/kg (of each drug) i.p.) [mg/100 ml] | Urea (plasma) ([3]; 100 mg/kg (of each drug) oral) [mg/100 ml] | Urea (plasma) ([3]; 500 mg/kg (of each drug) i.p.) [mg/100 ml] | Urea (plasma) ([3]; 500 mg/kg (of each drug) oral) [mg/100 ml] | effect on the elevated plasma urea and creatinine concentrations [3]
1 | CC(=O)O[C@H](CC(=O)[O-])C[N+](C)(C)C [ACL, Acetyl L-carnitine] | 8.8 ± 1.1 | 17.2 ± 1.9 | 48.8 ± 5.1 | reduced | 55.8 ± 6.1 | 36.8 ± 3.1 | 12.5 ± 1.5 | reduced | 104.7 ± 12.4 | 110.9 ± 21.6 | 98.5 ± 10.6 | 105.4 ± 29.4 | only slight changes
2 | CCC(=O)O[C@H](CC(=O)[O-])C[N+](C)(C)C [PC, Propionyl L-carnitine] | 7.5 ± 0.9 | 16.5 ± 2.2 | 44.2 ± 4.5 | reduced | 45.8 ± 4.5 | 30.4 ± 2.9 | 10.4 ± 0.9 | reduced | 100.5 ± 9.8 | 107.4 ± 30.2 | 80.2 ± 6.6 | 90.2 ± 31.4 | only slight changes
